Measured values taken from ChEMBL document CHEMBL5512612, “Novel small molecule inhibitors targeting renal cell carcinoma: Status, challenges, future directions” (Eur J Med Chem, 2024).

How the values were obtained:
A498 [1] = experiment: Antiproliferative activity against human A498 cells; format: functional, cell-based
786-0 = experiment: Antiproliferative activity against human 786-0 cells; format: functional, cell-based
ACHN = experiment: Induction of TRAIL induced apoptosis in human ACHN cells assessed as reduction in cFLIP level; format: functional, cell-based
[2] = molecular target: Vascular endothelial growth factor receptor 2 (Homo sapiens, UniProt P35968); experiment: Inhibition of VEGFR2 (unknown origin) by Kinase-Glo max reagent based assay
Vascular endothelial growth factor receptor 2, sequence (P35968 whole entry): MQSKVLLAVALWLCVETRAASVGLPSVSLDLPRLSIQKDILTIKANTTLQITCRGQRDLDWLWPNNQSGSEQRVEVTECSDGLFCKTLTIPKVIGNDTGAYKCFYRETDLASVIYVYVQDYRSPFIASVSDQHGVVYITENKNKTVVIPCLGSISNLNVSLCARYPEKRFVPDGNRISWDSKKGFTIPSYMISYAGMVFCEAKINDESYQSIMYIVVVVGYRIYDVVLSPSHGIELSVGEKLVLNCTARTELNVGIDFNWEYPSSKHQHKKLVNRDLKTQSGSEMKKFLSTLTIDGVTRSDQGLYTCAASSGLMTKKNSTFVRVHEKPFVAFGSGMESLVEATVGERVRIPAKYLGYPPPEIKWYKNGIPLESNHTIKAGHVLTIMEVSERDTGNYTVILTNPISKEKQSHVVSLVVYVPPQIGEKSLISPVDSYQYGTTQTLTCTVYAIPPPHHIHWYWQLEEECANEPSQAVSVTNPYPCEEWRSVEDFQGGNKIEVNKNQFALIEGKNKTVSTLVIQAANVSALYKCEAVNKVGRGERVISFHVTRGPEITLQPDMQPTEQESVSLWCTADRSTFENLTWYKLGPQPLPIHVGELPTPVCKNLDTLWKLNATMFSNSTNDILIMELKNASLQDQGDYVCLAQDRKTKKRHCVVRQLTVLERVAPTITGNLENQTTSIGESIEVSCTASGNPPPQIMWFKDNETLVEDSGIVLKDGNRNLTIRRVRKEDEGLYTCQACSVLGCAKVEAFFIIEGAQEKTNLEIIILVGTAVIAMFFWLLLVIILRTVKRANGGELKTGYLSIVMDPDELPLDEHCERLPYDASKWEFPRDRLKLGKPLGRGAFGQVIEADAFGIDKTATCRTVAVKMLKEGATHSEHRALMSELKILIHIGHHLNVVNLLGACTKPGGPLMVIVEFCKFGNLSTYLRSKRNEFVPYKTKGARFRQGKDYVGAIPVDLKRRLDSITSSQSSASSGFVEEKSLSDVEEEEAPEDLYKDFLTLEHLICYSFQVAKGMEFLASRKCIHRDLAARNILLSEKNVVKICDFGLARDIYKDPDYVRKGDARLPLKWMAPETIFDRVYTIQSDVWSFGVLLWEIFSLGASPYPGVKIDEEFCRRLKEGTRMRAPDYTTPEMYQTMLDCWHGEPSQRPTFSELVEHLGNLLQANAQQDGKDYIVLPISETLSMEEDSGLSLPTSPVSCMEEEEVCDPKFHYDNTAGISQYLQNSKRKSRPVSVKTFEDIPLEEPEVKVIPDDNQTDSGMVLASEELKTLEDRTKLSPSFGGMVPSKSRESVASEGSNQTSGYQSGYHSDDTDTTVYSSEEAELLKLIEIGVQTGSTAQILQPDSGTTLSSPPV

CAKI-1 = experiment: Cytotoxicity against human CAKI-1 cells incubated for 48 hrs by MTT assay; format: functional, cell-based; settings: CAKI-1, 48 h
A498 [3] = experiment: Cytotoxicity against human A498 cells incubated for 48 hrs by MTT assay; format: functional, cell-based; settings: A498, 48 h

Compound `O=C(Nc1ccc([N+](=O)[O-])cc1O)Nc1ccccc1Br` has an IC50 (A498 [1]) of 70 µM and an IC50 (786-0) of 100 µM.
`CC(=O)OC[C@]12CC[C@H]3[C@@H](C[C@H]4O[C@]45CC=CC(=O)[C@]35C)[C@]1(O)CC[C@@]2(O)[C@@](C)(O)[C@H]1CC(C)=C(C)C(=O)O1` showed an IC50 (ACHN) of 0.117 µM.
`Cc1ccc(/C=N/n2c(-c3cc4ccccc4[nH]3)n[nH]c2=S)cc1` was tested, and the IC50 [2] was 0.034 µM.
Compound `O=C(Nc1cccc(Cl)c1)Nc1nc2ccc([N+](=O)[O-])cc2s1` has an IC50 (A498 [1]) of 2.5 µM and an IC50 (786-0) of 2 µM.
`O=C(Nc1ccccc1)Nc1nc2ccccc2o1` gave an IC50 (A498 [1]) greater than 25 µM and an IC50 (786-0) greater than 25 µM.
Work on `COc1ccc(/C=N/n2c(-c3cc4ccccc4[nH]3)n[nH]c2=S)cc1` yielded an IC50 [2] of 0.064 µM.
In the case of `CC(=O)/C(=N\Nc1ccccc1)Sc1nnc(-c2cc3ccccc3[nH]2)n1/N=C/c1ccc(C)cc1`, the IC50 [2] is reported as 0.075 µM, the IC50 (CAKI-1) is reported as 3.23 µM and the IC50 (A498 [3]) is reported as 2.05 µM.
Compound `CCOC(=O)/C(=N\Nc1ccccc1)Sc1nnc(-c2cc3ccccc3[nH]2)n1/N=C/c1ccc(OC)cc1` has an IC50 [2] of 0.077 µM, an IC50 (CAKI-1) of 8.46 µM and an IC50 (A498 [3]) of 0.64 µM.
`O=C(Nc1ccc(Cl)cc1)Nc1nc2ccccc2[nH]1` was tested, and the IC50 (A498 [1]) was 9 µM and the IC50 (786-0) was 20 µM.
`CCN(CC)CCNC(=O)c1c(C)[nH]c(/C=C2\C(=O)Nc3ccc(F)cc32)c1C` [SUNITINIB] showed an IC50 (A498 [3]) of 1.25 µM.
`CC1=C(C)C(=O)O[C@@H]([C@](C)(O)[C@]2(O)CC[C@@]3(O)[C@@H]4C[C@H]5O[C@]56CC=CC(=O)[C@]6(C)[C@H]4CC[C@]23C)C1` [WITHANOLIDE E] gave an IC50 (ACHN) of 1.4 µM.
